The experiment deals with T1, interaction between hUPF1 and hUPF3X (Homo sapiens, UniProt Q92900+Q9BZI7).
T1 construct: the hUPF1 protein was immunoprecipitated from HeLa cell extracts; endogenous in cells; host or cells: HeLa
T1 sequence (Q92900 1-1129): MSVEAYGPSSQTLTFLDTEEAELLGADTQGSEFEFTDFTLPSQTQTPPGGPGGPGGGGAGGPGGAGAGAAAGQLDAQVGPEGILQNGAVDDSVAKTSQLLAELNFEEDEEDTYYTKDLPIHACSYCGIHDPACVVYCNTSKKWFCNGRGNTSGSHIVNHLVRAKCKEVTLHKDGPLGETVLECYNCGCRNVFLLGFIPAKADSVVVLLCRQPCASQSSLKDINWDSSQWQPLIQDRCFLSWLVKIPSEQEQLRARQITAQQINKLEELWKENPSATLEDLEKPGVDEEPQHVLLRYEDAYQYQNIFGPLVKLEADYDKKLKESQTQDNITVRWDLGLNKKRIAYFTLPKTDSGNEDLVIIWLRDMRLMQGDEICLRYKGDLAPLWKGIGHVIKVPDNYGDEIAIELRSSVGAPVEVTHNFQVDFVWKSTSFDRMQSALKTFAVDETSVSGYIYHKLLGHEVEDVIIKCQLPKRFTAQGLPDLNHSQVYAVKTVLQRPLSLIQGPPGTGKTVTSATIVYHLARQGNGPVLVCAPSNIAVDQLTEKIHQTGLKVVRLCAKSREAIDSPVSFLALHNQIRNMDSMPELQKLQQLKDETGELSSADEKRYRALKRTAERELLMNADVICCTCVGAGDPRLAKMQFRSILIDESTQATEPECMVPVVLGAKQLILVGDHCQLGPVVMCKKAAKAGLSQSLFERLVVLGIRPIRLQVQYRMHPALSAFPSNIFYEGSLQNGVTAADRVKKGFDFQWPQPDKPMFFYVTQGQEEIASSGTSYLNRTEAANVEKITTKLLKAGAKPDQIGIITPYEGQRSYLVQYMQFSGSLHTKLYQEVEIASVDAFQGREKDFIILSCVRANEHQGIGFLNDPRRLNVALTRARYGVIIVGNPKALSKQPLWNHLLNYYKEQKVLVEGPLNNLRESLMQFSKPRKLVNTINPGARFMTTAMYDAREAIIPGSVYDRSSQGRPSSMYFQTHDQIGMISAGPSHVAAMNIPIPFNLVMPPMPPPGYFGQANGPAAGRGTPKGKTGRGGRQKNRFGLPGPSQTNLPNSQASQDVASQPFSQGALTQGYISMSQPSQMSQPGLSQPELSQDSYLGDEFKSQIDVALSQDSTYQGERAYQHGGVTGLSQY
T1 sequence (Q9BZI7 1-483): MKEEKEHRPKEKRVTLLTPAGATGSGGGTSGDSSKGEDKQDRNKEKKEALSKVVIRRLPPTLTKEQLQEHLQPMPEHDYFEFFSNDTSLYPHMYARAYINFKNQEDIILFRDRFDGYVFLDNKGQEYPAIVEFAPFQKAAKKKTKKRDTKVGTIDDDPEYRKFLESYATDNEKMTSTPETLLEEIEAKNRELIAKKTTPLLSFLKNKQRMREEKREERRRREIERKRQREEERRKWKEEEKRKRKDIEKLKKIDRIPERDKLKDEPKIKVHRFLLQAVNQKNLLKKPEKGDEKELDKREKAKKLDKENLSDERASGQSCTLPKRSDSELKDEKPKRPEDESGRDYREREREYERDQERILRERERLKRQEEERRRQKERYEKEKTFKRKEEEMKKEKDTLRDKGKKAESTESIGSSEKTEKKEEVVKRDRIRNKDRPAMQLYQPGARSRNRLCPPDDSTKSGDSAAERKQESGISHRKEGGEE
Description: hUPF1 immunoprecipitation, presence of hUPF3X. The format is cell-based. The settings on record: HeLa cell extracts, compound added 20 hours before IP. As to the method:
Immunopurification of hUPF1 and western blot analysis were carried out according to a procedure described earlier (Lejeune and Maquat, 2004) by using an anti-hUPF1 antibody (Ohnishi et al., 2003), The western blot analyses were conducted by using a 1/250 dilution of anti-hUPF1, anti-hSMG5, anti-hSMG6 or anti-hSMG7 rabbit antibodies (Ohnishi et al., 2003), a 1/1000 dilution of anti-hUPF3/3X rabbit antibody (Ishigaki et al., 2001) or of anti-TUBILIN mouse antibody (SIGMA-ALDRICH). The proteins were detected by using the <<SuperSignal West Pico Chemiluminescent Substrate>> or <<SuperSignal West Femto Maximum Sensitivity Substrate>> (PIERCE).
In the light of the previous results, it was contemplated that the compound 70 would be able to prevent recruitment of hUPF1 to EJC via its interaction with other hUPF proteins. For this purpose, the hUPF1 protein was immunoprecipitated from HeLa cell extracts under conditions preserving the integrity of mRNPs (Lejeune and Maquat, 2004).
The compound 70 of DMSO(−) was added to cultures of cells 20 hours before immunoprecipitation (IP).

Structures are written as SMILES.

With `Cc1c2ccnc(Cl)c2c(C)c2c1[nH]c1ncccc12` [Compound 70, 6-Chloro-5,1-0dimethyl-11H-pyrido[3′,2′:4,5]-pyrrolo[3,2-g]isoquinoline], the “interaction between hUPF1 and hUPF3X” value was “not abolished”.

The values are drawn from US8895726B2, “Compounds derived from indole and pharmaceutical compositions containing them” (The Institut Curie, priority 2007, dated 2014).
